# Laboratory results reported in patent US10011586B2, “Heterocyclic compound, method for preparing the same, and pharmaceutical composition comprising the same” (Daewoong Pharmaceutical Co., Ltd., priority 2015, dated 2018).
# Key:
# NCI-H460 cells = assay: Cancer cell growth inhibition experiment (MTT assay); type: cell-based; conditions: Homo sapiens, lung cancer cell line, compounds 48 hours, cell viability by MTT assay
# Experimental: NCl-H460 cells, lung cancer cell lines, were cultured in 5% CO2, 37° C. incubator using a flask for 75 cm^2 tissue culture. 96-well plates were used for the evaluation. These were prepared by differently applying at concentrations in the range of 6,000 to 12,000 cells/well according to the growth rate of the cell lines. The medium containing 5% FBS were dispensed in 200 μL/well and used. The medium were cultured for 24 hours. After confirming the cell status and dispensing form of a 96-well plate under a microscope, they were used for subsequent experiments. The compounds were evaluated at concentrations of 100, 30, 10, 3, 1, 0.3, 0.03, 0.01 μM. After removing the existing medium, the compounds with various concentrations were treated in an amount of 200 μL/well. The compounds-treated plates were further cultured for 48 hours, and the cell viabilities were measured by MTT assay to calculate IC50 values.
# % Inhibition and IC50 values of the respective compounds were calculated and analyzed using Sigma Plot 8.0. In Table 2, the results are divided into A, B and C according to the range of IC50. The case where the derived IC50 is 3 μM or less is represented by “A”, the case where the IC50 is 3 to 10 μM is represented by “B”, and the case where the IC50 is 10 μM or higher is represented by “C”.
# PRS enzyme = molecular target: T1, PRS enzyme (Homo sapiens, UniProt P07814); assay: PRS enzyme activity inhibition experiment; type: biochemical; conditions: purified PRS protein subcloned from EPRS cDNA; [3H]proline, 37° C., 5 to 10 minutes, liquid scintillation counter; read-out: PRS IC50
# T1 construct: the portion corresponding to PRS in cDNA of EPRS was subcloned; made in house
# T1 sequence (P07814 1007-1512 limits assumed): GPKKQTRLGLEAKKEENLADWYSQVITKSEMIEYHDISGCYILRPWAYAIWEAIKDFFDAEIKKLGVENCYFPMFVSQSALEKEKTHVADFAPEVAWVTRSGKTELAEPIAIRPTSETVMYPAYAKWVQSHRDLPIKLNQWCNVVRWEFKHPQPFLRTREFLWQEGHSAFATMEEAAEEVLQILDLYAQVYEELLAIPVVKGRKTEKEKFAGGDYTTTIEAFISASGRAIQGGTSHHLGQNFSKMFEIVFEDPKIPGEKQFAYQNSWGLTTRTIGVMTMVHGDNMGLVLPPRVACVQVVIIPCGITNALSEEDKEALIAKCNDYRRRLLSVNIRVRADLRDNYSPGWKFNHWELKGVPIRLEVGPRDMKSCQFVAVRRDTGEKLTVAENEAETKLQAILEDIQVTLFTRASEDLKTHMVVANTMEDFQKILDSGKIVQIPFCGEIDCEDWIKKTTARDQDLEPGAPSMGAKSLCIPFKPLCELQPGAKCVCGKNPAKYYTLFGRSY
# Experimental: Specifically, the portion corresponding to PRS in cDNA of EPRS was subcloned, and the obtained high-purity PRS protein was purified and used in the experiment. The compounds (1 μM) prepared in Examples were added into the reaction buffer (20 mM KPO4 (pH 7.4), 6 mM MgAc, 5 mM ATP, […] tRNA, 0.5 mM DTT, […][^3H]proline (1 mCi/mL)) and allowed to react at 37° C. for 5 to 10 minutes. The reaction was terminated with 3M paper that was in advance dried by addition of 5% TCA. The radioactivity was measured using a liquid scintillation counter.
# % Inhibition and IC50 values of the respective compounds were calculated and analyzed using Microsoft Excel or Sigma Plot 8.0. In Table 1, the results are divided into A, B and C according to the range of IC50.
SMILES,IC50 (NCI-H460 cells) [nM],IC50 (PRS enzyme) [nM]
"O=C(C[C@H]1NCCC[C@@H]1O)Cn1c(CO)nc2ccc(-c3ccccc3F)cc21 [Example 58, 1-(6-(2-fluorophenyl)-2-(hydroxymethyl)-1H-benzo[d]imidazol-1-yl)-3-((2R,3S)-3-hydroxypiperidin-2-yl)propan-2-one]",3000 to 10000,< 100
"O=C(C[C@H]1NCCC[C@@H]1O)Cn1cnc2ccc(-c3ccc(Cl)cc3)cc21 [Example 28, 1-(6-(4-chlorophenyl)-1H-benzo[d]imidazol-1-yl)-3-((2R,3S)-3-hydroxypiperidin-2-yl)propan-2-one]",3000 to 10000,< 100
"O=C(C[C@H]1NCCC[C@@H]1O)Cn1cnc2ccc(-c3ccccc3Cl)cc21 [Example 26, 1-(6-(2-chlorophenyl)-1H-benzo[d]imidazol-1-yl)-3-((2R,3S)-3-hydroxypiperidin-2-yl)propan-2-one]",3000 to 10000,< 100
"O=C(C[C@H]1NCCC[C@@H]1O)Cn1cnc2ccc(-c3cc(Cl)cc(Cl)c3)cc21 [Example 31, 1-(6-(3,5-dichlorophenyl)-1H-benzo[d]imidazol-1-yl)-3-((2R,3S)-3-hydroxypiperidin-2-yl)propan-2-one]",3000 to 10000,< 100
"O=C(C[C@H]1NCCC[C@@H]1O)Cn1cnc2ccc(-c3cscn3)cc21 [Example 39, 1-((2R,3S)-3-hydroxypiperidin-2-yl)-3-(6-(thiazol-4-yl)-1H-benzo[d]imidazol-1-yl)propan-2-one]",≥ 10000,100 to 500
"Cc1cc(Cl)cc(-c2ccc3ncn(CC(=O)C[C@H]4NCCC[C@@H]4O)c3c2)c1 [Example 34, 1-(6-(3-chloro-5-methylphenyl)-1H-benzo[d]imidazol-1-yl)-3-((2R,3S)-3-hydroxypiperidin-2-yl)propan-2-one]",3000 to 10000,< 100
"O=C(C[C@H]1NCCC[C@@H]1O)Cn1cnc2cc(-c3ccccc3)ccc21 [Example 8, 1-((2R,3S)-3-hydroxypiperidin-2-yl)-3-(5-phenyl-1H-benzo[d]imidazol-1-yl)propan-2-one]",≥ 10000,> 500
"O=C(C[C@H]1NCCC[C@@H]1O)Cn1c(CO)nc2ccc(-c3cccc(F)c3)cc21 [Example 59, 1-(6-(3-fluorophenyl)-2-(hydroxymethyl)-1H-benzo[d]imidazol-1-yl)-3-((2R,3S)-3-hydroxypiperidin-2-yl)propan-2-one]",≤ 3000,< 100
"Cc1c(-c2cccc(C#N)c2)ccc2c1ncn2CC(=O)C[C@H]1NCCC[C@@H]1O [Example 20, 3-(1-(3-((2R,3S)-3-hydroxypiperidin-2-yl)-2-oxopropyl)-4-methyl-1H-benzo[d]imidazol-5-yl)benzonitrile]",≥ 10000,> 500
"O=C(C[C@H]1NCCC[C@@H]1O)Cn1cnc2ccc(-c3cccc(Cl)c3)cc21 [Example 27, 1-(6-(3-chlorophenyl)-1H-benzo[d]imidazol-1-yl)-3-((2R,3S)-3-hydroxypiperidin-2-yl)propan-2-one]",≤ 3000,< 100
"Cc1c(-c2cccc(F)c2)ccc2c1ncn2CC(=O)C[C@H]1NCCC[C@@H]1O [Example 16, 1-(5-(3-fluorophenyl)-4-methyl-1H-benzo[d]imidazol-1-yl)-3-((2R,3S)-3-hydroxypiperidin-2-yl)propan-2-one]",≥ 10000,100 to 500
"O=C(C[C@H]1NCCC[C@@H]1O)Cn1cnc2c(-c3ccccc3)cccc21 [Example 1, 1-((2R,3S)-3-hydroxypiperidin-2-yl)-3-(4-phenyl-1H-benzo[d]imidazol-1-yl)propan-2-one]",≥ 10000,100 to 500
"O=C(C[C@H]1NCCC[C@@H]1O)Cn1cnc2ccc(-c3cccc(Cl)c3)nc21 [Example 46, 1-(5-(3-chlorophenyl)-3H-imidazo[4,5-b]pyridin-3-yl)-3-((2R,3S)-3-hydroxypiperidin-2-yl)propan-2-one]",≤ 3000,< 100
